Results on 18 molecules are retold here after patent publication US7119105B2, “Methods for treating neurodegenerative disorders using aspartyl protease inhibitors” (The Regents of the University of California, priority 1997, dated 2006).

Molecules are shown by their SMILES. Read-outs that look alike come from different tables or passages of the source. A value given as a limit tells only on which side of the number the result lay.

Broadly, the inhibition is the drop in the measured response relative to a control, in per cent.

For this experiment, the target named is T1, human liver cathepsin D (Homo sapiens, UniProt P07339).
T1 construct: human liver cathepsin D (Calbiochem); purchased Calbiochem; host or cells: human liver
Put plainly: High-throughput fluorometric cathepsin D assay (library screen). The format is biochemical. The settings on record: for inhibition at 0.33 µM: read-out: Inhibition of Cathepsin D in Library Screen; for inhibition at 0.1 µM: 100 nM inhibitor. The text has this:
Compounds capable of inhibiting cathepsin D can readily be identified using the assays described herein which measure a change in the hydrolysis of a peptide substrate. More particularly, a fluorometric high through-put assay for activity toward human liver cathepsin D (Calbiochem) can be used to screen the compounds of the present invention for their ability to inhibit cathepsin D. This assay was previously described by G. A. Kraft, et al., Methods Enzymol. 241, 70-86 (1994), the teachings of which are incorporated herein by reference. […] T. Baldwin, et al., Proc. Natl. Acad. Sci., U.S.A. 90, 6796-6800 (1993)). Generally, the reactants are mixed, the reaction is allowed to proceed for a specific period of time and the fluorescence of the reaction products is monitored to determine the extent to which the peptide substrate has been cleaved. […] 241, 70-86 (1994). As such, following the methods of the present invention, compounds can be readily synthesized and screened to identify compounds that inhibit cathepsin D. Briefly, a fluorometric high through-put assay for activity toward human liver cathepsin D (Calbiochem) was performed in 96-well microtiter plates (G. A. Krafft, et al., Methods Enymol. 241, 70-86 (1994)). […] T. Baldwin, et al., Proc. Natl. Acad. Sci., U.S.A. 90, 6796-6800 (1993)). The assay was performed in […] Microfluor fluorescence microtiter plates, and readings were taken on a Perkin-Elmer LS-50B with an attached 96-well plate reader. The excitation wavelength was 340 nm. A 340 nm interference filter (Hoya, U-340) for excitation and a 430 nm cut-off filter for emission were used. […] The fluorescent unit readings were taken at three time points within the linear region of the substrate cleavage, and percent activity of the enzyme was determined by comparing the change of fluorescent units (FU) for each well to the average change in FU for six control wells without inhibitor.

The mark [1] stands for this setting: 330 nM inhibitor, crude compound, approximate concentration.
[2] abbreviates: crude compound, approximate concentration.

T1 sequence (P07339 169-412 limits assumed): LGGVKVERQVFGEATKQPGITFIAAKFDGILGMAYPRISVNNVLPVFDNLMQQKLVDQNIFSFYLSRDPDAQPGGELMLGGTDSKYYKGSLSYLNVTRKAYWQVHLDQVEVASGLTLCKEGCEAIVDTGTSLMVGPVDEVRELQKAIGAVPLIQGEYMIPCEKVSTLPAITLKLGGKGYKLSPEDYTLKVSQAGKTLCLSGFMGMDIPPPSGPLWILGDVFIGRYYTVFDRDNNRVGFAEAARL
T1 sequence (P07339 65-162 limits assumed): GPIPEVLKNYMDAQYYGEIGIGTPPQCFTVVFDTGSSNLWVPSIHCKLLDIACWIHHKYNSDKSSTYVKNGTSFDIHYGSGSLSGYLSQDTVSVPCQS

Turning to `O=C(/C=C/c1c(Cl)cccc1Cl)N[C@@H](Cc1ccccc1)[C@@H](O)CN(CCc1ccc2c(c1)OCO2)C(=O)CCN1C(=O)c2ccccc2C1=O` [EHB], under setting [1], the inhibition at 0.33 µM is at least 50%.

On to `O=C(COc1cc(Cl)c(Cl)cc1Cl)N[C@@H](Cc1ccccc1)[C@@H](O)CN(CCc1ccc2c(c1)OCO2)C(=O)CCc1ccc(Cl)c(Cl)c1` [EFD], for which the inhibition at 0.33 µM under setting [1] was at least 50%.

For the molecule `O=C(CCn1c(=O)oc2ccccc21)N[C@@H](Cc1ccccc1)[C@@H](O)CN(CCc1ccc2c(c1)OCO2)C(=O)COc1c(Cl)cc(Cl)cc1Cl` [EAA], the inhibition at 0.1 µM under setting [2] is at least 50%. Further, the inhibition at 0.33 µM under setting [1] was at least 50%.

Regarding `O=C(CCN1C(=O)c2ccccc2C1=O)N[C@@H](Cc1ccccc1)[C@@H](O)CN(CCc1ccc(Cl)cc1Cl)C(=O)CCc1ccc(Cl)c(Cl)c1` [FFH], the inhibition at 0.33 µM under setting [1] is at least 50%.

On to `COc1ccc(C(=O)N[C@@H](Cc2ccccc2)[C@@H](O)CN(CCc2ccc3c(c2)OCO3)C(=O)COc2c(Cl)cc(Cl)cc2Cl)c(Cl)c1OC` [EAJ], for which the inhibition at 0.33 µM under setting [1] is at least 50%.

On to `COc1ccc(C(=O)N[C@@H](Cc2ccccc2)[C@@H](O)CN(CCc2ccc(Cl)cc2Cl)C(=O)CCN2C(=O)c3ccccc3C2=O)c(Cl)c1OC` [FHJ], for which the inhibition at 0.33 µM under setting [1] is at least 50%.

As to `O=C(N[C@@H](Cc1ccccc1)[C@@H](O)CN(CCc1ccc2c(c1)OCO2)C(=O)/C=C/c1cc2c(cc1Br)OCO2)c1ccc([N+](=O)[O-])cc1Cl` [EEF], the inhibition at 0.33 µM under setting [1] is at least 50%.

In the case of `O=C(CCN1C(=O)c2ccccc2C1=O)N[C@@H](Cc1ccccc1)[C@@H](O)CN(CCc1ccc2c(c1)OCO2)C(=O)CCN1C(=O)c2ccccc2C1=O` [EHH], the inhibition at 0.33 µM under setting [1] is at least 50%.

`COc1ccc(C(=O)N[C@@H](Cc2ccccc2)[C@@H](O)CN(CCc2ccc3c(c2)OCO3)C(=O)/C=C/c2c(Cl)cccc2Cl)c(Cl)c1OC` [EGJ]: the inhibition at 0.33 µM under setting [1] was at least 50%.

Turning to `COc1ccc(C(=O)N[C@@H](Cc2ccccc2)[C@@H](O)CN(CCc2ccc3c(c2)OCO3)C(=O)CCc2ccc(Cl)c(Cl)c2)c(Cl)c1OC` [EFJ], the inhibition at 0.33 µM under setting [1] is at least 50%.

Turning to `O=C(CCn1c(=O)oc2ccccc21)N[C@@H](Cc1ccccc1)[C@@H](O)CN(CCc1ccc(Cl)cc1Cl)C(=O)CCc1ccc(Cl)c(Cl)c1` [FFA], under setting [1], the inhibition at 0.33 µM is at least 50%.

With `O=C(CCN1C(=O)c2ccccc2C1=O)N[C@@H](Cc1ccccc1)[C@@H](O)CN(CCc1ccc(Cl)cc1Cl)C(=O)COc1c(Cl)cc(Cl)cc1Cl` [FAH], the inhibition at 0.33 µM under setting [1] was at least 50%.

For the molecule `O=C(CCN1C(=O)c2ccccc2C1=O)N[C@@H](Cc1ccccc1)[C@@H](O)CN(CCc1ccc2c(c1)OCO2)C(=O)CCc1ccc(Cl)c(Cl)c1` [EFH], the inhibition at 0.33 µM under setting [1] was at least 50%.

Turning to `O=C(CCc1ccc2c(c1)OCO2)N[C@@H](Cc1ccccc1)[C@@H](O)CN(CCc1ccc2c(c1)OCO2)C(=O)CCN1C(=O)c2ccccc2C1=O` [EHI], the inhibition at 0.1 µM under setting [2] was at least 50%. Further, under setting [1], the inhibition at 0.33 µM is at least 50%.

As for `O=C(N[C@@H](Cc1ccccc1)[C@@H](O)CN(CCc1ccc2c(c1)OCO2)C(=O)CCN1C(=O)c2ccccc2C1=O)c1ccc([N+](=O)[O-])cc1Cl` [EHF], the inhibition at 0.33 µM was at least 50%.

On to `O=C(CCc1ccc2c(c1)OCO2)N[C@@H](Cc1ccccc1)[C@@H](O)CN(CCc1ccc2c(c1)OCO2)C(=O)CCc1ccc(Cl)c(Cl)c1` [EFI], for which the inhibition at 0.33 µM under setting [1] was at least 50%.

As to `O=C(N[C@@H](Cc1ccccc1)[C@@H](O)CN(CCc1ccc(Cl)cc1Cl)C(=O)CCN1C(=O)c2ccccc2C1=O)c1ccc([N+](=O)[O-])cc1Cl` [FHF], the inhibition at 0.33 µM under setting [1] was at least 50%.

Turning to `O=C(CCn1c(=O)oc2ccccc21)N[C@@H](Cc1ccccc1)[C@@H](O)CN(CCc1ccc(Cl)cc1Cl)C(=O)COc1c(Cl)cc(Cl)cc1Cl` [FAA], under setting [1], the inhibition at 0.33 µM is at least 50%.
